Laboratory results reported in US6451576B1, “Sesquiterpene synthases from grand fir (Abies grandis), and methods of use” (Washington State University Research Foundation, priority 1998, dated 2002).

Target: T1, recombinant AG1 protein (SEQ ID No:13), E-α-bisabolene synthase (Abies grandis, UniProt O81086)
T1 construct: GST (fusion partner of vector pGEX-4T-2); made in house; host or cells: E. coli XL1-Blue/pGAG1
T1 sequence (O81086 1-817): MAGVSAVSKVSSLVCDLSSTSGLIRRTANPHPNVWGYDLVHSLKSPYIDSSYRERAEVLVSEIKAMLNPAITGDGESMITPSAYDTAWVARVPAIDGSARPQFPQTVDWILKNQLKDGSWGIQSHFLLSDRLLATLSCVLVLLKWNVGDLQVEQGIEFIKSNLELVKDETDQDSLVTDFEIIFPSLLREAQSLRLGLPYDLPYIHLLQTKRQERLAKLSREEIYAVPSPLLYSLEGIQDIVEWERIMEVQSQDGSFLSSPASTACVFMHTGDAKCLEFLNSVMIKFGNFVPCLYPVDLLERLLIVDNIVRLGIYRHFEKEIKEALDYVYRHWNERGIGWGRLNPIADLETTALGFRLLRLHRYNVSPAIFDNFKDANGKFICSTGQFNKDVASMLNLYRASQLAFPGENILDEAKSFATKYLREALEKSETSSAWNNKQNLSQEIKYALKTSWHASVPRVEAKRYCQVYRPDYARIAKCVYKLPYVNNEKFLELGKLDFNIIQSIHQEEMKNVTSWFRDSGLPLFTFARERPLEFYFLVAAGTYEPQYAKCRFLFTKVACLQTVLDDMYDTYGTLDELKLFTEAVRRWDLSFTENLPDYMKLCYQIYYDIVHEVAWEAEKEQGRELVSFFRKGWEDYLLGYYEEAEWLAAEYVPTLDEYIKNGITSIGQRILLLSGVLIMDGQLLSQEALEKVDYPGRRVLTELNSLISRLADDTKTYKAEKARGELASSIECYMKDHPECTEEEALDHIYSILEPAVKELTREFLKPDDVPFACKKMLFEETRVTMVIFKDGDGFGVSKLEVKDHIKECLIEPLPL
Test: Monoterpene, sesquiterpene and diterpene synthase assays of recombinant AG1 protein expressed in E. coli
Assay type: biochemical
Conditions: extracts of XL1-Blue/pGAG1, 31° C., 2 h
Procedure: Expression of cDNA Clone AG1 (SEQ ID No:12) in E. coli. Plasmid pGAG1 was transformed into E. coli XL1-Blue (Sambrook, J., et al., (1989) Molecular Cloning: A Laboratory Manual (Cold Spring Harbor Lab., Cold Spring Harbor, N.Y.), 2nd Ed). The resulting bacterial strain E. coli XL1-Blue/pGAG1 was grown at 37° C. in 5 ml of LB medium (Sambrock, J., et al., (1989) Molecular Cloning. A Laboratory Manual (Cold Spring Harbor Lab., Cold Spring Harbor, N.Y.), 2nd Ed) supplemented with 100 μg ampicillin/ml and 12.5 μg tetracycline/ml to A600=1.0, then induced by addition of 1 mM isopropyl-1-thio-β-D-galactopyranoside and grown for another 12 h at 20° C. Cells were harvested by centrifugation (2000×g, 10 min) and resuspended in either 1 ml monoterpene synthase assay buffer, 1 ml sesquiterpene synthase assay buffer, or 1 ml diterpene synthase assay buffer (Bohlmann, J., et al., J. Biol. Chem. 272:21784-21792(1997)). […]
Characterization of Products of Recombinant E-α-Bisabolene Synthase Encoded by cDNA Clone AG1 (SEQ ID No:12) in E. coli. […] Mass spectra were compared to those of authentic standards and analyzed by Hewlett-Packard Chemstation software. […]

Row | SMILES | conversion of substrate to terpene olefin
1 | CC(C)=CCC/C(C)=C/COP(=O)(O)OP(=O)(O)O [geranyl diphosphate, reference compound] | inefficiently converted
2 | CC(C)=CCC/C(C)=C/CC/C(C)=C/CC/C(C)=C/COP(=O)(O)OP(=O)(O)O [geranylgeranyl diphosphate, reference compound] | no diterpene synthase activity
